Among the data in patent US11286268B1, “EIF4E-inhibiting compounds and methods” (EFFECTOR THERAPEUTICS, INC., priority 2019, dated 2022) are IC50 values, retold here.

Like-named read-outs stand apart in the source and are kept apart here. A value given as a limit tells only on which side of the number the result lay.

The test has as its target recombinant eIF4E (Homo sapiens (Human), UniProt P06730). The experiment in a line: Fluorescence polarization competition assay for eIF4E binding potency. An outline of the steps:
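Competitive displacement format: compounds compete with a fluorescent m7GDP tracer (20 nM) for 75 nM recombinant eIF4E. Incubation is 30 min at room temperature, protected from light, with 1% DMSO. Polarization read gives IC50 over eight 3-fold concentrations.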
(Fluorescence polarisation rises when a labelled molecule tumbles more slowly, as on binding a larger partner.)

The mark [1] stands for this setting: inhibition of eIF4E/EDA-m7GDP-ATTO-550 binding, calculated IC50 values, Table 4B, read-out: IC50.
Where [2] appears, read: fluorescence polarization competition, 75 nM recombinant eIF4E, 20 nM EDA-m7GDP-ATTO-550, IC50 class, read-out: elF4E FP.
Where [3] appears, read: inhibition of eIF4E/EDA-m7GDP-ATTO-550 binding by 50%, Table 4B calculated values, read-out: IC50.

Chain of recombinant eIF4E (P06730 whole entry): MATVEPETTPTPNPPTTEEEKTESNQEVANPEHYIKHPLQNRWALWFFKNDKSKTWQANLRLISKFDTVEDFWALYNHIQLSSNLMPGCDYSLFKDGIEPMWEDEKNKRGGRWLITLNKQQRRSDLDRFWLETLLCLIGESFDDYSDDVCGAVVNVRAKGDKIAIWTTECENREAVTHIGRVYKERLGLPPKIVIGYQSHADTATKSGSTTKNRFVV

Consider `Cc1nc2cnc(C#CCN(C)CC(F)(F)F)c(C#N)c2c(=O)n1CC#Cc1ccc(Cl)cc1-c1ccnc2c(C(=O)O)csc12` [compound 1468], for which, under setting [1], the IC50 is 35 nM. `COc1ccc(C#N)c2c(=O)n(CCOc3ccc(Cl)cc3-c3ccnc4c(C(=O)O)csc34)c(C)nc12` [compound 403]: the IC50 is, setting by setting: under setting [2], less than 50 nM; under setting [3], 12.6 nM. The corresponding values for `CNC(=O)c1cc(C#N)c2c(=O)n(CCOc3ccc(Cl)cc3-c3ccnc4c(C(=O)O)csc34)c(C)nc2c1` [compound 412] are 50 to 1000 nM and 70.1 nM.

Turning to `Cc1nc2cc(C(F)(F)F)cc(C#N)c2c(=O)n1CCOc1ccccc1-c1ccnc2c(C(=O)O)csc12` [compound 227], the IC50 under setting [2] was in the range of 50 to 1000 nM and the IC50 under setting [3] was 507 nM. With `Cc1nc2cnc(N(C)C3CCN(C4(C)COC4)CC3)c(C#N)c2c(=O)n1CC#Cc1ccc(Cl)cc1-c1ccnc2c(C(=O)O)csc12` [compound 1118], the IC50 under setting [2] is less than 50 nM and the IC50 under setting [3] is 14 nM. For the compound `Cc1cc(-c2cc(Cl)ccc2OCCn2c(C)cc3cnc(-c4cc(F)cnc4C)c(C#N)c3c2=O)c2scc(C(=O)O)c2n1` [compound 1001], the IC50 is, setting by setting: under setting [2], less than 50 nM; under setting [3], 31.2 nM. Take `Cc1nc2cnc(N3CC4(C3)CN(C3CCC3)C4)c(C#N)c2c(=O)n1CCOc1ccc(Cl)cc1-c1ccnc2c(C(=O)NS(C)(=O)=O)csc12` [compound 1512]: the IC50 under setting [1] was 12.2 nM. With `Cc1nc2cnc(N(C)C3CCN(C4CCC4(F)F)CC3)c(C#N)c2c(=O)n1CC#Cc1ccc(Cl)cc1-c1ccnc2c(C(=O)O)csc12` (stereo not shown) [compound 1166], the IC50 runs as follows: under setting [2], less than 50 nM; under setting [3], 28.6 nM.

With `Cc1nc2cc(C(F)(F)F)cc([N+](=O)[O-])c2c(=O)n1CCOc1ccc(Cl)cc1-c1ccnc2c(C(=O)O)csc12` [compound 271], the IC50 was less than 50 nM under setting [2] and 13.2 nM under setting [3]. The corresponding values for `Cc1nc2cc(C(F)(F)F)cc(C#N)c2c(=O)n1CCOc1ccc(Cl)cc1-c1cccc2c1S(=O)(=O)C=C2C(=O)O` [compound 327] are less than 50 nM and 43.7 nM.

For the compound `Cc1nc2cnc(N3CCN(C)C4(CC4)C3)c(C#N)c2c(=O)n1CCOc1ccc(Cl)cc1-c1ccnc2c(C(=O)O)csc12` [compound 1337], the IC50 under setting [1] was 51.9 nM. The same measure, in the same setting: with `Cc1cc(-c2cc(Cl)ccc2OCCn2c(C)nc3cc(C(F)(F)F)c(-c4cnc(C)c(F)c4)c(C#N)c3c2=O)c2scc(C(=O)O)c2n1` [compound 1383] the figure was 5.03 nM; with `Cc1nc2cnc(N(C)[C@H]3[C@@H]4CC[C@H]3CN(CC(C)(F)F)C4)c(C#N)c2c(=O)n1CC#Cc1ccc(Cl)cc1-c1ccnc2c(C(=O)O)csc12` [compound 1690], 27.4 nM; with `Cc1nc2cnc(N(C)C3CCN([C@H]4C[C@@H](OC(F)(F)F)C4)CC3)c(C#N)c2c(=O)n1CC#Cc1ccc(Cl)cc1-c1ccnc2c(C(=O)NS(=O)(=O)C3COC3)csc12` [compound 1610], 6.02 nM. In the case of `CCN(c1ncc2nc(C)n(CC#Cc3ccc(Cl)cc3-c3ccnc4c(C(=O)NS(C)(=O)=O)csc34)c(=O)c2c1C#N)C1CCN(CC(F)(F)C(F)F)CC1` [compound 1607], under setting [1], the IC50 is 14.6 nM.

For the compound `Cc1nc2cnc(N(C)C3CCN(C4CC(F)(F)C4)CC3)c(C#N)c2c(=O)n1CC#Cc1ccc(Cl)cc1-c1ccnc2c(C(=O)NS(=O)(=O)c3ccccn3)csc12` [compound 1830], under setting [1], the IC50 is 8.06 nM. With `Cc1cc(-c2cc(Cl)ccc2OCCn2c(C)nc3cc(CN(C)C)c(OC(C)C)c(C#N)c3c2=O)c2scc(C(=O)O)c2n1` [compound 370], the IC50 reads like this: under setting [2], less than 50 nM; under setting [3], 12.1 nM. With `Cc1cc(-c2cc(Cl)ccc2OCCn2c(C)nc3cc(C(F)(F)F)c(CC4CCNCC4)c(C#N)c3c2=O)c2scc(C(=O)O)c2n1` [compound 714], the IC50 was less than 50 nM under setting [2] and 47.2 nM under setting [3]. Consider `Cc1nc2cc(C(F)(F)F)cc(C#N)c2c(=O)n1CCOc1ccc(Cl)cc1-c1ccnc2c(C(=O)O)coc12` [compound 325], for which the IC50 under setting [2] was in the range of 50 to 1000 nM and the IC50 under setting [3] is 52 nM. With `Cc1nc2cc(Cl)c(Cl)c(C#N)c2c(=O)n1CC#Cc1ccc(Cl)cc1-c1ccnc2c(C(=O)O)csc12` [compound 257], the IC50 is 50 to 1000 nM under setting [2] and 69.2 nM under setting [3]. Turning to `Cc1nc(N2CCN(C)CC2)c(C#N)c2c(=O)n(CC#Cc3ccc(Cl)cc3-c3ccnc4c(C(=O)O)csc34)c(C)nc12` [compound 1273], the IC50 under setting [1] is 7.48 nM. Consider `Cc1nc2cnc(N(C)C3CCN(C(C)(C)C(F)F)CC3)c(C#N)c2c(=O)n1CCOc1ccc(Cl)cc1-c1ccnc2c(C(=O)O)csc12` [compound 1431], for which the IC50 under setting [1] is 19.8 nM.

As for `Cc1nc2cc(C(F)(F)F)c(C3CCNCC3)cc2c(=O)n1CCOc1ccc(Cl)cc1-c1ccnc2c(C(=O)O)csc12` [compound 880], the IC50 under setting [2] is 50 to 1000 nM and the IC50 under setting [3] is 67.9 nM. On to `Cc1cc(-c2cc(Cl)ccc2OCCn2c(C)nc3cc(F)c(F)c(C#N)c3c2=O)c2scc(C(=O)NS(C)(=O)=O)c2n1` [compound 567], for which the IC50 by setting is: under setting [2], less than 50 nM; under setting [3], 11.7 nM.

Consider `C#Cc1c(C(=O)O)cccc1-c1cc(Cl)ccc1OCCn1c(C)nc2ccc(C(F)F)c(C#N)c2c1=O` [compound 55], for which the IC50 by setting is: under setting [2], less than 50 nM; under setting [3], 21.6 nM. Consider `Cc1nc2cc(Cl)c(Cl)c(C#N)c2c(=O)n1CCOc1ccc(C#N)cc1-c1ccnc2c(C(=O)O)csc12` [compound 290], for which the IC50 under setting [2] was less than 50 nM and the IC50 under setting [3] is 42.7 nM.

Turning to `CC(C)(C#N)c1cc(C(=O)O)cc(-c2cc(Cl)ccc2OCCn2cnc3cnc(C#N)cc3c2=O)c1` [compound 110], the IC50 under setting [2] is more than 1000 nM and the IC50 under setting [3] was 26900 nM.

On to `Cc1nc2cnc(N(C)C3CCN([C@H]4C[C@H](F)C4)CC3)c(C#N)c2c(=O)n1CC#Cc1ccc(Cl)cc1-c1ccnc2c(C(=O)NS(=O)(=O)C3COC3)csc12` [compound 1791], for which, under setting [1], the IC50 is 10.1 nM. Take `Cc1nc2cnc(N(C)C3CCN(CC(F)(F)F)CC3)c(C#N)c2c(=O)n1CC#Cc1ccc(Cl)cc1-c1ccnc2c(C(=O)NS(=O)(=O)C(C)C)csc12` [compound 1538]: under setting [1], the IC50 is 14.5 nM. Consider `CCCCc1nc2c(=O)n(CCOc3ccc(Cl)cc3-c3cc(C)nc4c(C(=O)O)csc34)c(C)nc2cc1C(F)(F)F` [compound 391], for which the IC50 reads like this: under setting [2], less than 50 nM; under setting [3], 3.52 nM. With `CNc1cc2c(=O)n(CCOc3ccc(Cl)cc3-c3cccc(C(=O)O)c3)c(C)nc2cn1` [compound 2006], under setting [1], the IC50 was 611 nM. On to `Cc1nc2cc(C(F)(F)F)c(N3CCN(C)CC3)c(C#N)c2c(=O)n1CCOc1ccc(Cl)cc1-c1ccnc2cnsc12` [compound 1251], for which the IC50 under setting [1] is 4.77 nM. As to `Cc1nc2cnc(N3CCC34CCN(CC(F)F)CC4)c(C#N)c2c(=O)n1CC#Cc1ccc(Cl)cc1-c1ccnc2c(C(=O)O)csc12` [compound 1500], under setting [1], the IC50 was 17 nM. `Cc1cc(-c2cc(Cl)ccc2C#CCn2c(C)nc3cncc(C#N)c3c2=O)c2scc(C(=O)O)c2n1` [compound 601]: the IC50 is 50 to 1000 nM under setting [2] and 52 nM under setting [3]. Regarding `Cc1nc2cncc(C#N)c2c(=O)n1CCOc1ccc(Cl)cc1-c1cccc(P(=O)(O)O)c1` [150FA], the IC50 under setting [3] was 63.1 nM.

Regarding `O=C(O)c1cccc(-c2cc(Cl)ccc2OCCn2c(C(F)F)nc3cncc(Br)c3c2=O)c1` [compound 2010], the IC50 under setting [1] is 1190 nM.

In the case of `Cc1cc(-c2cc(Cl)ccc2OCCn2c(C)nc3cc(C(F)(F)F)c(-c4cnsc4)c(C#N)c3c2=O)c2scc(C(=O)O)c2n1` [compound 347], the IC50 is, setting by setting: under setting [2], less than 50 nM; under setting [3], 32.1 nM.

For `Cc1nc2cc(C(F)(F)Cl)cc(C#N)c2c(=O)n1CCOc1ccc(Cl)cc1-c1ccnc2c(C(=O)O)csc12` [compound 264], the IC50 under setting [2] was less than 50 nM and the IC50 under setting [3] is 24.6 nM. Turning to `Cc1nc2cc(C(=O)N(C)C)cc(C#N)c2c(=O)n1CCOc1ccc(Cl)cc1-c1ccnc2c(C(=O)O)csc12` [compound 413], the IC50 runs as follows: under setting [2], less than 50 nM; under setting [3], 34.6 nM. With `Cc1nc2c(c(=O)n1CC#Cc1ccc(Cl)cc1-c1ccnc3c(C(=O)NS(=O)(=O)CC(C)(C)C#N)csc13)C(C#N)=C(N(C)C1CCN(CC(F)(F)F)CC1)NC2` [compound 1672], the IC50 under setting [1] was 13.2 nM.

On to `COc1ncc(-c2cc(Cl)ccc2OCCn2cnc3cnc(C#N)cc3c2=O)nc1C(=O)O` [compound 90], for which the IC50 runs as follows: under setting [2], more than 1000 nM; under setting [3], 1230 nM. For the compound `Cc1nc2cncc(C#N)c2c(=O)n1CCOc1ccc(Cl)cc1-c1cccc(P(=O)(O)OC(C)C)c1` [150FB], the IC50 under setting [3] was 143 nM. In the case of `Cc1csc2c(-c3cc(Cl)ccc3OCCn3c(C)nc4cc(C(F)(F)F)c(N5CCN(C)CC5)c(C#N)c4c3=O)ccnc12` [compound 1249], the IC50 is, setting by setting: under setting [2], 50 to 1000 nM; under setting [1], 75.9 nM. With `Cc1cc(-c2cc(Cl)ccc2OCCn2c(C)nc3cc(C(F)F)c(-c4cncc(F)c4)c(C#N)c3c2=O)c2scc(C(=O)O)c2n1` [compound 1387], the IC50 under setting [1] was 22.8 nM. `Cc1nc2cnc(N(C)C3CCN(C4(CF)CC4)CC3)c(C#N)c2c(=O)n1CCOc1ccc(Cl)cc1-c1ccnc2c(C(=O)O)csc12` [compound 1428]: the IC50 under setting [1] is 12.2 nM. As for `Cc1nc2cc(C(F)(F)F)c(N3CCN(C)CC3)cc2c(=O)n1CCOc1ccc(Cl)cc1-c1ccnc2c(C(=O)O)csc12` [compound 1230], the IC50 reads like this: under setting [2], less than 50 nM; under setting [1], 10.3 nM.

On to `Cc1cc(-c2cc(Cl)ccc2OCCn2c(C)nc3cc(C(F)(F)F)c(Cc4ccccn4)nc3c2=O)c2scc(C(=O)O)c2n1` [compound 390], for which the IC50 under setting [2] is less than 50 nM and the IC50 under setting [3] is 1.75 nM.
